PMC9867837 (Cancer letters, 2022)
pIC50: −log10 of the molar value.

Columns and labels:
[1] = system: MDA-MB-231 tumor xenografts; assay: Subcutaneous MDA-MB-231 xenografts in athymic nude mice; type: in vivo
Method: Mice were housed in specific pathogen-free conditions in the animal facility. All animal experiments were conducted in accordance with the recommendations in the Guide for the Care and Use of Laboratory Animals on a protocol approved by the Institutional Animal Care and Use Committee (IACUC). Subcutaneous xenograft studies were performed as previously reported. Five-week-old female athymic nude mice were purchased from Envigo (Indianapolis, IN) or Charles River (Wilmington, MA) and maintained in the institutional animal facilities approved by the American Association for Accreditation of Laboratory Animal Care. […] Tumor sizes were monitored every 3–4 days, measured with calipers, and converted to tumor volume, V, according to the formula V = 0.52 × a^2 × b, where a, smallest superficial diameter, and b, largest superficial diameter. For each treatment group, the tumor volumes for each set of measurements were statistically analyzed relative to the control (DMSO-treated; 70% DMSO with sterile PBS) group.
Constitutively-active Stat3 promotes primary tumor development and the progression to therapy resistance. We proceeded to evaluate the in vivo antitumor efficacy against tumor growth in both human xenograft and mouse syngeneic models of TNBC. In four separate studies, we tested the efficacy of H182, H278 (HCl salt of H182), and H120. For these xenografts, the human breast cancer, MDA-MB-231 cells were injected subcutaneously into athymic nude mice. When tumors were palpable (80–120 mm^3), mice were grouped so that the mean tumor sizes were identical between groups and treated as follows: A) intraperitoneal (IP) injections of H182 at 10 mg/kg every other day for 33 days; B) oral gavage of H182 every day at 5 mg/kg for 20 days, and then increased to 20 mg/kg for additional 12 days; and C) oral gavage of H120 at 20 mg/kg, daily for 14 days, and then increased to 30 mg/kg, daily for additional 14 days.

CYP2C9 = molecular target: T1, CYP2C9 (Homo sapiens, UniProt P11712); assay: CYP inhibition, CYP2C9; type: in vitro ADME; conditions: read-out: CYP Inhibition CYP2C9 % Inh at 10 μM
T1 construct: Eurofins-CEREP (contract research organisation that ran the assay)
T1 sequence (P11712 whole entry, species assumed): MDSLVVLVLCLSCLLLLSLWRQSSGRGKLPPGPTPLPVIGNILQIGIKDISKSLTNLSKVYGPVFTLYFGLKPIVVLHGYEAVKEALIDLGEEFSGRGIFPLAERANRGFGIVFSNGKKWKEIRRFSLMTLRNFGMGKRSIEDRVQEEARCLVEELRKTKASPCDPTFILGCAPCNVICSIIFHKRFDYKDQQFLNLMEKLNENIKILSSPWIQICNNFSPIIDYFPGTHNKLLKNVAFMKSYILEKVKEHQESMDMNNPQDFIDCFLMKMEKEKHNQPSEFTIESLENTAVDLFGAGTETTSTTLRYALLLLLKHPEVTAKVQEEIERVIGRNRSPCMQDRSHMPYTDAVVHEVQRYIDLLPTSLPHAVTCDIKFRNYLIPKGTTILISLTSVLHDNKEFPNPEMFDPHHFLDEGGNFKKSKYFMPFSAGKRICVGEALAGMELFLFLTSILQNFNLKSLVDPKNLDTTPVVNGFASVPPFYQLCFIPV
Method: The in vivo activity of a compound is influenced by its overall bioavailability, which is also driven by parameters, such as solubility, permeability, and metabolism. […] These values are all above the industry cut-off of 60 μg/ml. […] It has CLint in human hepatocytes of 16 μL/min/10^6 cells, which falls into moderate stability range [43].

pYStat3C468A = molecular target: T2, pYStat3C468A (Homo sapiens, UniProt P40763, C468A); assay: EMSA with purified mutant pYStat3C468A; type: biochemical
T2 construct: made in house; host or cells: E. coli BL21(DE3) TKB1 (inducible tyrosine kinase)
T2 sequence (P40763 127-711 C468A): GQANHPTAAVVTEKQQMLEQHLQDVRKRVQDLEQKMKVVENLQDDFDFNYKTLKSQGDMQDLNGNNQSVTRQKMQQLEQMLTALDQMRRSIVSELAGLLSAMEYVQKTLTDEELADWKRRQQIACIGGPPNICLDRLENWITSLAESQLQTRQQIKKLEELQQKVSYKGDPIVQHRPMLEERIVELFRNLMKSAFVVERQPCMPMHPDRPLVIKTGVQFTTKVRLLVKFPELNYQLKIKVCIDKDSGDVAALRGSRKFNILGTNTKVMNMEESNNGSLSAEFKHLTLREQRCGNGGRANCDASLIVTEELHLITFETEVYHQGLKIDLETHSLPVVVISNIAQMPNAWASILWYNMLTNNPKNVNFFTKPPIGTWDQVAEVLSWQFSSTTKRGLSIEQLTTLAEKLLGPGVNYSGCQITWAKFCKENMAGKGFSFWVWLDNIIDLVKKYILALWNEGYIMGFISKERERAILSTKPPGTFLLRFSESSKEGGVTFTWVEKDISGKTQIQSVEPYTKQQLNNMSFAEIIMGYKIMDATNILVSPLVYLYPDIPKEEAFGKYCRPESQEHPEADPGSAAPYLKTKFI
Excerpt: This construct was used to generate the mutants, Stat3C328A, Stat3C426A, Stat3C468A, and Stat3C542S, as described in detail in Supplementary Information “Methods”.
The expression of un-phosphorylated and tyrosine phosphorylated His-tagged recombinant wtStat3 and mutant Stat3 proteins in BL21 (DE3) bacterial cells is described in detail in Supplementary Information “Methods”.
Given the MS data, we conducted site-directed mutagenesis analysis for the effects of Cys mutations (Cys-to-Ala or Cys-to-Ser mutations) on the inhibitory activities or potencies of the compounds. […] Purified, phosphorylated wild-type (wt)Stat3, and phosphorylated mutants, Stat3C328A, Stat3C426A, Stat3C468A, and Stat3C542S protein samples of equal amounts were pre-incubated with or without 3 μM H182 for 30 min at room temperature prior to incubation with the radiolabeled hSIE probe that binds Stat3 and subjecting to EMSA analysis. […] Focusing on the C426 and C468, we next conducted dose-response studies for effects of H182 on Stat3C426A and Stat3C468A. […] Equal proteins used in the DNA-binding assay/EMSA analysis are shown by SDS-PAGE Coomassie staining (Fig. 3B, lower). […]
In another case, the nuclear extract was pre-incubated with the radiolabeled probe for 30 min at 30 °C prior to incubation with increasing concentration of H182 at room temperature for 30 min and subjecting to EMSA analysis. Bands corresponding to Stats DNA- binding activities were scanned and quantified using ImageJ and plotted as a percentage of control (vehicle) against the concentration of the inhibitor, from which the IC50 values were derived . […]
These studies were performed as previously reported using the v-Src -transformed NIH3T3/v-Src fibroblasts [1 -5] . […] Luciferase activity was normalized to total protein concentration of cell lysate, which was determined by Bradford assay (Bio-Rad, Hercules, CA) . […]

For `O=C([C@H]1CCN1S(=O)(=O)c1c(F)c(F)c(F)c(F)c1F)N(Cc1ccc(C2CCCCC2)cn1)c1ccc2c(=O)[nH]ncc2c1` [Compound H182], the “Tumor growth, MDA-MB-231 xenografts” value ([1]; H182 IP 10 mg/kg every other day for 33 days) was “significant tumor growth inhibition”, the “Tumor growth, MDA-MB-231 xenografts” value ([1]; H182 oral gavage daily 5 mg/kg for 20 days, then 20 mg/kg for 12 days) was “significant tumor growth inhibition” and the “Body weights and obvious signs of toxicity” value ([1]; the three xenograft studies) was “No notable changes”. For the same molecule, the inhibition at 10 µM (CYP2C9) was 33%, the “Effect on DNA-binding activity of pYStat3C468A” value (pYStat3C468A; 3 μM H182, 30 min) was “unaffected” and the “Effect on pYStat3C468A activity” value (pYStat3C468A; 10 μM H182) was “no effect”. For the same molecule, the pIC50 (pYStat3C468A; EMSA, 0–50 μM H182, 30 min) was 4.40.
